{"source": "patent US20050059610A1", "about": "(priority 2003, published 2005)", "key": {"[1]": {"system": "critically ill patients", "test": "Clinical outcomes in critically ill patients, glutamine vs control", "type": "in vivo, human"}, "[2]": {"system": "peripheral blood mononuclear cells", "test": "Glutamine-treated peripheral blood mononuclear cells", "type": "cell-based"}, "[3]": {"system": "myocardial ischemia/reperfusion injury"}, "[4]": {"system": "polymicrobial sepsis (CLP)", "test": "Cecal ligation and puncture (CLP): lung and heart tissue metabolism by MRS, survival", "type": "in vivo, Sprague-Dawley rats", "method": "Survival was monitored for five days. In a separate group of animals (n=4/group), lung and heart tissue was harvested 24 hours post-CLP and tissue metabolism was analyzed by ^1H-MRS and ^31P-MRS."}, "[5]": {"system": "critically ill humans", "conditions": "cited from earlier work; for tolerability of the maximum dose previously administered in humans: even in critically ill patients"}, "[6]": {"system": "HSP 72 and 27", "test": "HSP expression in hearts of LPS-injured rats (Western blot)", "type": "in vivo, rat", "conditions": "0.75 g/kg GLN with 5 mg/kg LPS; six hours; vs LR control", "method": "(§1) GLN enhances heat shock protein expression in the unstressed and stressed myocardium. […] The increase was also observed for HSP 27 (another of the protective heat shock proteins) wherein the induction occurred as early as 4-6 hours and persisted for up to 48-72 hours.\nTissues were harvested six hours post-LPS injury and analyzed for HSP 72 expression via Western blot. Each lane represents protein extracts from a separate animal. Relative densitometry are expressed as means ±SE. *−p<0.0005, compared with LR resuscitation alone assessed by Students t test."}, "[7]": {"system": "heatstroke", "test": "Experimental heatstroke in the rat, oral GLN", "type": "in vivo, Sprague-Dawley Rats", "method": "Heatstroke was performed in anesthetized rats (ketamine/xylazine) by heating animals to 42 deg C. (rectal temperature) for 30 minutes. Survival was analyzed for five days post-heatstroke. In a separate set of animals, HSP 70 and Heat Shock Factor-1 activation (HSF-1) were analyzed at 1-hour and 24-hours post-heatstroke in heart and lung tissue via western blot (n=10/group). Statistical analysis was performed via Fischer's Exact Test for survival and ANOVA with Duncan grouping as post-hoc test for HSP-70 and HSF-1 expression."}, "[8]": {"system": "serum HSP 70", "test": "Serum HSP-70 levels in critically ill patients (surgical ICU), GLN vs control", "type": "in vivo, human", "conditions": "for Baseline HSP-70 / LN(Baseline HSP-70): before treatment"}, "[9]": {"system": "polymicrobial sepsis (2CLP)", "test": "Cecal-ligation and double-puncture (2CLP) sepsis: survival, cytokines, lung HSP 72", "type": "in vivo, Sprague-Dawley rats", "excerpt": "Further, increased Interleukin-18 (IL-18) levels appear to play a critical role in cytokine-induced organ failure and can be predictive of mortality in sepsis patients.\nIncreased Interleukin-18 (IL-18) levels appear to play a critical role in cytokine-induced organ failure and can be predictive of mortality in sepsis patients."}, "[10]": {"system": "intestinal epithelial cells", "test": "Protection of cells against heat and oxidant stress", "type": "cell-based", "excerpt": "This was proven when blockade of HSP 70 expression via quercetin (inhibits HSF-1 binding) and via direct antisense inhibition of the HSP-70 gene (FIG. 12)."}, "[11]": {"system": "HSP 72", "test": "HSP expression in heart and lung tissue of unstressed rats (Western blot)", "type": "in vivo, rat", "method": "as §1\nTissues were then harvested four hours post-GLN administration, and HSP 72 expressions were analyzed by Western blot. The image shown is representative of those obtained in four different experiments. The graph represents a percent increase in HSP 72 over control. […] (*p<0.001, **p<0.01, ***p<0.05 compared to control by ANOVA.)"}, "[12]": {"conditions": "in vivo; cited from earlier work"}, "[13]": {"system": "experimental SIRS (CLP)", "test": "Serum HSP72 (ELISA) and survival after CLP (experimental SIRS)", "type": "in vivo, Sprague-Dawley rats"}, "[14]": {"conditions": "non-pancreatic diagnoses, n = 7"}, "[15]": {"conditions": "five days of oral GLN prior to heatstroke"}}, "note": "Entries after “also recorded” stand apart in the source; their conditions may differ. Where two headings read alike, the source gives them in different places.", "data": [{"smiles": "NC(=O)CC[C@H](N)C(=O)O", "note": "[GLN, Glutamine]", "values": [{"measurement": "ICU days", "setting": "[1]; all diagnoses, n = 15", "result": "15.73 ± 16.18", "unit": "days"}, {"measurement": "Length of stay", "setting": "[1]; all diagnoses, n = 15", "result": "29.73 ± 14.46", "unit": "days"}, {"measurement": "Maximum Total Bilirubin (units??)", "setting": "[1]; all diagnoses, n = 15", "result": "1.23 ± 0.67"}, {"measurement": "Maximum Total Creatinine (units??)", "setting": "[1]; all diagnoses, n = 15", "result": "1.26 ± 0.89"}, {"measurement": "Number of bacterial infections", "setting": "[1]; all diagnoses, n = 15", "result": "0.20 ± 0.41"}, {"measurement": "Number of infections", "setting": "[1]; all diagnoses, n = 15", "result": "1.87 ± 2.59"}, {"measurement": "One or more bacterial infections (%)", "setting": "[1]; all diagnoses, n = 15", "result": 20.0, "unit": "%"}, {"measurement": "One or more infections (%)", "setting": "[1]; all diagnoses, n = 15", "result": 60.0, "unit": "%"}, {"measurement": "Ventilator days", "setting": "[1]; all diagnoses, n = 15", "result": "12.07 ± 15.25", "unit": "days"}, {"measurement": "ICU days", "setting": "[1]; [14]", "result": "16.71 ± 7.65", "unit": "days"}, {"measurement": "Length of stay", "setting": "[1]; [14]", "result": "25.29 ± 6.18", "unit": "days"}, {"measurement": "Maximum Total Bilirubin (units??)", "setting": "[1]; [14]", "result": "1.70 ± 0.70"}, {"measurement": "Maximum Total Creatinine (units??)", "setting": "[1]; [14]", "result": "1.80 ± 1.07"}, {"measurement": "Number of bacterial infections", "setting": "[1]; [14]", "result": "0.0 ± 0.0"}, {"measurement": "Number of infections", "setting": "[1]; [14]", "result": "1.43 ± 1.40"}, {"measurement": "One or more infections (%)", "setting": "[1]; [14]", "result": 57.1, "unit": "%"}, {"measurement": "One ore more bacterial infection (%)", "setting": "[1]; [14]", "result": 0, "unit": "%"}, {"measurement": "Ventilator days", "setting": "[1]; [14]", "result": "12.86 ± 9.03", "unit": "days"}, {"measurement": "heat shock protein expression", "setting": "[2]", "result": "increase"}, {"measurement": "tumor-necrosis alpha release", "setting": "[2]", "result": "significant attenuation"}, {"measurement": "recovery of cardiac flow following reperfusion", "setting": "[3]; 0.75 g/kg alanine-glutamine (0.52 g/kg glutamine) IP 18 hours prior, pre-load 8 and 12 mmHg", "result": "significantly improved"}, {"measurement": "percent recovery of coronary flow", "setting": "[3]; 60 minutes following reperfusion, 0.52 g/kg GLN 18 hours prior", "result": "significantly enhanced"}, {"measurement": "post-I/R cardiac output", "setting": "[3]; single dose 18 hours prior to 15 minutes of no flow ischemia", "result": "significant improvement"}, {"measurement": "fall in lung tissue Creatine/phosphocreatine", "setting": "[4]; 24 hours post-CLP", "result": "significantly attenuated"}, {"measurement": "fall in lung tissue glucose", "setting": "[4]; 24 hours post-CLP", "result": "significantly attenuated"}, {"measurement": "fall in lung tissue glutamine", "setting": "[4]; 24 hours post-CLP", "result": "significantly attenuated"}, {"measurement": "lung lactate accumulation", "setting": "[4]; 24 hours post-CLP, p<0.06", "result": "trend towards a decrease"}, {"measurement": "five day mortality rate post-CLP", "setting": "[4]; GLN 0.75 g/Kg one hour post surgery", "result": 78, "unit": "%"}, {"measurement": "NAD+ content in lung and heart tissue following CLP", "setting": "[4]; GLN 0.75 g/Kg one hour post surgery, 24 hours post-CLP", "result": "significant improvement"}, {"measurement": "tolerability of the maximum dose previously administered in humans", "setting": "[5]", "result": "without adverse side effects"}, {"measurement": "tolerability of the maximum dose previously administered in humans", "setting": "[5]; listed as L-Glutamine", "result": "tolerated well without adverse side effects"}, {"measurement": "toxicity in critically ill humans", "setting": "[5]; variety of clinical settings", "result": "without any evidence of toxicity"}, {"measurement": "HSP 72 and 27 expression in heart (western blot)", "setting": "[6]", "result": "markedly enhanced"}, {"measurement": "HSF-1 activation", "setting": "[7]; 1-hour and 24-hours post-heatstroke", "result": "No change"}, {"measurement": "HSP 70 expression in heart and lung tissue", "setting": "[7]; 1 hour post-heatstroke, versus unheated animals and heated controls", "result": "significantly enhanced"}, {"measurement": "HSP 70 between GLN and control animals", "setting": "[7]; 24 hours post-heatstroke", "result": "no significant difference"}, {"measurement": "mortality following heatstroke", "setting": "[7]; GLN 0.65 g/kg gavage twice a day for five days, 42 deg C. for 30 minutes, control 62.5%", "result": 12.5, "unit": "%"}, {"measurement": "HSP 70 expression in heart, lung, and colon tissue", "setting": "[7]; [15]", "result": "enhanced"}, {"measurement": "mortality from lethal heatstroke (in words)", "setting": "[7]; [15]", "result": "significantly reduced"}, {"measurement": "HSP-70 levels at 1-week, higher than control patients by", "setting": "[8]; 95% CI −0.01 to 5.64, p=0.050", "result": 2.82, "unit": "units"}, {"measurement": "change in HSP-70 levels from baseline to 1-week, greater than control patients by", "setting": "[8]; 95% CI −0.09 to 5.29, p=0.057", "result": 2.60, "unit": "units"}, {"measurement": "1-week HSP-70", "setting": "[8]; all diagnoses, n = 15", "result": "4.09 ± 4.70"}, {"measurement": "HSP-70 change from baseline", "setting": "[8]; all diagnoses, n = 15", "result": "3.48 ± 4.53"}, {"measurement": "LN(1-week HSP-70)", "setting": "[8]; all diagnoses, n = 15", "result": "0.56 ± 1.63"}, {"measurement": "LN(1-wk HSP/Baseline HSP)", "setting": "[8]; all diagnoses, n = 15", "result": "1.93 ± 1.23"}, {"measurement": "Baseline HSP-70", "setting": "[8]; all diagnoses, n = 15", "result": "0.61 ± 1.05"}, {"measurement": "LN(Baseline HSP-70)", "setting": "[8]; all diagnoses, n = 15", "result": "−1.37 ± 1.26"}, {"measurement": "enhancement of serum HSP levels versus iso-nitrogenous control solution", "setting": "[8]; intravenous GLN, mixed critically ill patients, surgical ICU", "result": "four-fold enhancement"}, {"measurement": "1-week HSP-70", "setting": "[8]; [14]", "result": "3.43 ± 5.17"}, {"measurement": "HSP-70 change from baseline", "setting": "[8]; [14]", "result": "2.60 ± 4.77"}, {"measurement": "LN(1-week HSP-70)", "setting": "[8]; [14]", "result": "0.20 ± 1.70"}, {"measurement": "LN(1-wk HSP/Baseline HSP)", "setting": "[8]; [14]", "result": "1.63 ± 1.21"}, {"measurement": "Baseline HSP-70", "setting": "[8]; [14]", "result": "0.83 ± 1.48"}, {"measurement": "LN(Baseline HSP-70)", "setting": "[8]; [14]", "result": "−1.43 ± 1.58"}, {"measurement": "expression of IL-18", "setting": "[9]; 12, 18, and 24 hours post-2CLP", "result": "significantly attenuated"}, {"measurement": "expression of IL-6", "setting": "[9]; 6 hours post-2CLP", "result": "attenuated"}, {"measurement": "expression of TNF-α", "setting": "[9]; 6 hours post-2CLP", "result": "attenuated"}, {"measurement": "lung HSP 72 expression versus control", "setting": "[9]; following 2CLP", "result": "enhanced"}, {"measurement": "5-day mortality rate following 2CLP", "setting": "[9]; single dose GLN 0.75 g/Kg one hour following surgery, control 78%", "result": 42, "unit": "%"}, {"measurement": "protection of cells against heat and oxidant stress", "setting": "[10]", "result": "protection"}, {"measurement": "HSP 27 induction, earliest occurrence", "setting": "[11]; unstressed rat heart", "result": "4 to 6", "unit": "h"}, {"measurement": "HSP 27 induction, persistence up to", "setting": "[11]; unstressed rat heart", "result": "48 to 72", "unit": "h"}, {"measurement": "HSP 70 and HSP 25 in heart and lung tissue", "setting": "[11]; unstressed rats", "result": "enhance"}, {"measurement": "HSP 72 expression in heart and lung tissue vs control (densitometry)", "setting": "[11]; unstressed rats, GLN 0.15, 0.45, 0.75 g/kg over 12-15 minutes, tissue four hours post-GLN", "result": "significantly enhanced; also recorded: significantly increased"}, {"measurement": "half-life", "setting": "[12]", "result": 6, "unit": "h"}, {"measurement": "survival following experimental SIRS", "setting": "[13]; 5 days, BSS 18%", "result": 61, "unit": "%"}, {"measurement": "sHSP72 vs. BSS (ELISA)", "setting": "[13]; GLN (given as ALA-GLN) 0.75 g/Kg 1 hour post-CLP, 6 hours post-CLP", "result": "significantly enhanced"}]}]}
